{
  "source": "paper PMC9236248",
  "about": "“Ucl fimbriae regulation and glycan receptor specificity contribute to gut colonisation by extra-intestinal pathogenic Escherichia coli” (PLoS Pathogens, 2022)",
  "key": {"[1]": {"system": "UclD", "conditions": "galactose at 1 mM alone"}, "[2]": {"target": "UcaD^LD (Proteus mirabilis, UniProt B4EV65)", "sequence (B4EV65 entry or part of it)": "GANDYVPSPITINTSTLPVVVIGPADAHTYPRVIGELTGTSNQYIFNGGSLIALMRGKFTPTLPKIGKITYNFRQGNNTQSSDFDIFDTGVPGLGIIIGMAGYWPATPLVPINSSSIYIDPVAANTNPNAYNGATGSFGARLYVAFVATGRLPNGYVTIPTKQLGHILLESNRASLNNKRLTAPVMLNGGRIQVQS", "experiment": "Soaking of pre-formed UcaD^LD crystals with monosaccharides (X-ray crystallography)", "type": "binding, P. mirabilis PM54", "conditions": "0.1-0.2 M monosaccharide, 48 hours soak", "experimental": "Crystals were produced by the hanging drop method. Structural analyses were carried out using DALI [22], and PyMOL (http://www.pymol.org). Figures were generated using PyMOL. The UclD^LD structure was refined to final Rwork/Rfree values of 24.8%/30.6%; the UcaD^LD structure was refined to final Rwork/Rfree values of 16.9%/19.2%, respectively (Table A in S1 Text). For UcaD^LD:monosaccharide complexes, coordinates and structure factors have been deposited in the PDB with IDs 7MZQ (Fuc complex), 7MZR (Glc complex), and 7MZS (Gal complex).\n157 flash-cooling in liquid nitrogen. X-ray diffraction data were collected from a single crystal at the\n158 Australian Synchrotron MX2 beamline, using a wavelength of 0.9537 Å. Data collection was\n159 performed using Blu-Ice software, indexed and integrated using MOSFLM and scaled with\n160 AIMLESS within the CCP4 suite. The structure was solved by molecular replacement using\n161 PHASER [23] and UclDLD as the template. The model was refined using Phenix and structure\nThe structure was refined to final Rwork/Rfree values\n163 of 16.9 %/19.2 %, respectively (Table A in S1 Text). The final UcaDLD model contains residues 21-\n165 disordered or flexible conformation in the crystals. Coordinates and structure factors have been\n166 deposited in the PDB with ID 7MZO.\n167 UcaDLD:monosaccharide complexes: Pre-formed UcaDLD and UclDLD crystals were soaked with\n168 0.1-0.2 M of the monosaccharides Fuc, Glc, Gal, GlcNAc, GalNAc or Neu5Ac for 48 hours in the\n169 crystallisation solution (0.1 M sodium citrate buffer pH 4.5-5.5, 2-3 M NaCl). The crystals were\n170 cryoprotected in Paratone-N and flash-cooled at 100 K. X-ray diffraction data were collected from\n171 single crystals on the MX2 beamline at the Australian Synchrotron, using a wavelength of 0.9537 Å.\n172 The data-sets was processed using either MOSFLM (Gal complex), or XDS (Fuc and Glc complexes)\n173 [27] and scaled using AIMLESS in the CCP4 suite. The structures were solved by molecular\n174 replacement using PHASER [23] and ligand-free UcaDLD as the template. The models were refined\n175 using Phenix, and structure validations were performed using MolProbity. Coordinates and\n176 structure factors have been deposited in the PDB with IDs 7MZQ (Fuc complex), 7MZR (Glc\n177 complex), and 7MZS (Gal complex)."}, "[3]": {"target": "T1, UclD^LD (Escherichia coli, UniProt Q8GA71)", "T1 sequence (Q8GA71 21-221)": "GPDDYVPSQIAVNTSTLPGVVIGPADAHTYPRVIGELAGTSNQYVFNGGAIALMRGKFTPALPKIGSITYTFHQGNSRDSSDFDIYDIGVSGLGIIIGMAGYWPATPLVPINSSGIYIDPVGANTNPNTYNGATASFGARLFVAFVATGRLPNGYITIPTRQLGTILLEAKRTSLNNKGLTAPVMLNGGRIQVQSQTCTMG", "experiment": "SPR analysis of glycans on immobilized UclD lectin domain", "set-up": "species or system E. coli strain F11", "conditions": "single cycle kinetics, read-out: KD, binding affinity to UclD^LD determined by SPR", "experimental": "126 described with minor modifications. Briefly, UclD and UcaD were immobilized onto flow cells\n127 of a CM5 sensor chip using amine coupling at 20 µg/mL in 10 mM sodium acetate pH 4.0 and at a\n128 flow rate of 5 µL/min for 10 minutes. Glycans were chosen based on positive glycan array results for\n129 each of the proteins with each glycan run across a dilution range starting at a maximum concentration\n130 of 100 µM and minimum concentrations tested being 1.6 nM using single cycle kinetics. Results were\n131 analysed using the Biacore T200 evaluation software.\n132 Crystallization and crystal structure determination.\n133 UclDLD: UclDLD crystals were produced using the hanging drop method, with drops containing 1 µL\n134 of protein (10 mg/mL) and 1 µL of well solution (20-25% w/v PEG 3350, 0.1 M Bis-Tris propane\n135 pH 6.5, 0.2 M sodium iodide). The crystals appeared within 1-5 days. The crystals were cryoprotected\n136 in glycerol (80% well solution and 20% (v/v) glycerol) before flash-cooling in liquid nitrogen. X-ray\n137 diffraction data were collected from a single crystal at the Australian Synchrotron MX1 beamline,\n138 using a wavelength of 0.9537 Å. Data collection was performed using Blu -Ice software, indexed\n139 and integrated using MOSFLM and scaled with AIMLESS within the CCP4 suite. Molecular […]\n142 we determined the UclDLD structure by SAD phasing using the CRANK2 [19] pipeline of the CCP4 […]"}, "[4]": {"target": "T1, UclD^LD", "experiment": "Glycan array analysis (358 glycan structures), UclD", "conditions": "yes/no binding"}, "[5]": {"target": "T2, OxyR-6xHis (UniProt P0ACQ4)", "T2 sequence": "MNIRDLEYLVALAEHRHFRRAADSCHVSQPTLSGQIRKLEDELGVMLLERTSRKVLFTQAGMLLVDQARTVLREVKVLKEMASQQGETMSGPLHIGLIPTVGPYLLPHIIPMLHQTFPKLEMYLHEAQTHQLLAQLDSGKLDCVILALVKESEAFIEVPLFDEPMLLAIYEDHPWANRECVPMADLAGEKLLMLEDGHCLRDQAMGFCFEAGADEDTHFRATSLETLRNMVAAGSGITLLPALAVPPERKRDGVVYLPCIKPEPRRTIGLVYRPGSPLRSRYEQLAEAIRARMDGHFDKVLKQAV", "experiment": "EMSA"}},
  "note": "Several values for one entry are separate records, joined by “and”; a condition that tells them apart may be missing. Identical values can stand only once.",
  "data": [
    {"compound": "O=C[C@H](O)[C@@H](O)[C@@H](O)[C@H](O)CO", "note": "[galactose]", "values": [
      {"measurement": "Response 15 seconds after injection-B", "setting": "[1]", "result": "6.3 RU and ~ 6.3 RU"},
      {"measurement": "Monosaccharide electron density / binding in soaked UcaD^LD crystals", "setting": "[2]", "result": "Clear monosaccharide electron density was observed"}
    ]},
    {"compound": "CO[C@@H]1O[C@H](CO)[C@H](O)[C@H](O)[C@H]1O", "note": "[β-methyl-galactose]", "values": [
      {"measurement": "Monosaccharide electron density / binding in soaked UcaD^LD crystals", "setting": "[2]", "result": "did not observe binding"}
    ]},
    {"compound": "CC(=O)N[C@H]1[C@H]([C@H](O)[C@H](O)CO)O[C@@](O[C@H]2[C@@H](O)[C@@H](CO)O[C@@H](O[C@@H]([C@H](O[C@@H]3O[C@@H](C)[C@@H](O)[C@@H](O)[C@@H]3O)[C@H](C=O)NC(C)=O)[C@H](O)CO)[C@@H]2O)(C(=O)O)C[C@@H]1O", "note": "[SialylLewis X, Neu5Acα2-3Galβ1-4(Fucα1–3)GlcNAc]", "values": [
      {"measurement": "Kd", "setting": "[3]", "result": 2520, "unit": "nM"}
    ]},
    {"compound": "asialo-GM1", "values": [
      {"measurement": "Binding to UclD^LD on glycan array", "setting": "[4]", "result": "did not identify interactions"}
    ]},
    {"compound": "AATAGGTCGCTCATTTCAGGGTAAAGCATATCTTTTGTCATTACCAACACAATAAATATGGTTTTTGATCGTTTTTCCCGATCGTTTTAGCAATCATGATATGTGCAATCTATCATACGCTGGTTATCGATCGGTAAAAACATTTTGAAAATGATTGTTTTGTTGGGGATGATTGCTGAACAAATGATCAATACTGGAATTAAACAGGAATTCATTTTATGAAAATAAAAGTTATAGCATTGGCTACATTTGTTTCTGCTG (double strand) [Cy3-Pucl-78T]", "values": [
      {"measurement": "binding", "setting": "[5]", "result": "binds"}
    ]},
    {"compound": "C[C@H](O)[C@@H](O)[C@@H](O)[C@H](O)C=O", "note": "[Fuc, fucose]", "values": [
      {"measurement": "Monosaccharide electron density / binding in soaked UcaD^LD crystals", "setting": "[2]", "result": "Clear monosaccharide electron density was observed"}
    ]},
    {"compound": "lactosyl ceramide", "values": [
      {"measurement": "Binding to UclD^LD on glycan array", "setting": "[4]", "result": "did not identify interactions"}
    ]},
    {"compound": "CC(=O)N[C@H]1[C@H]([C@H](O)[C@H](O)CO)OC(O)(C(=O)O)C[C@@H]1O", "note": "(some centres unmarked) [Neu5Ac, N-acetylneuraminic acid]", "values": [
      {"measurement": "Monosaccharide electron density / binding in soaked UcaD^LD crystals", "setting": "[2]", "result": "not"}
    ]},
    {"compound": "OC[C@H]1OC(O)[C@H](O)[C@@H](O)[C@@H]1O", "note": "(some centres unmarked) [Glc, glucose]", "values": [
      {"measurement": "Monosaccharide electron density / binding in soaked UcaD^LD crystals", "setting": "[2]", "result": "Clear monosaccharide electron density was observed"}
    ]},
    {"compound": "CC(=O)N[C@@H]1[C@@H](O)[C@H](O)[C@@H](CO)O[C@H]1O", "note": "[GlcNAc, N-acetylglucosamine]", "values": [
      {"measurement": "Monosaccharide electron density / binding in soaked UcaD^LD crystals", "setting": "[2]", "result": "not"}
    ]}
  ]
}
